This note sets out measurements from US12357666B1, “Traditional Chinese herbal plant composition for improving symptoms of liver cancer patients and compatibility method thereof” (The First Hospital of China Medical University, priority 2024, dated 2025).

Data set [1] in a line: Organ index (lung, liver, heart, kidney) of tumor mice. It counts as in vivo, BALB/c nude mice. To be noted: 28 d. The text has this: (§1) Totally 90 male BALB/c nude mice aged 5 weeks and with body weight of 19-22 g were used.
(§2) A total of 80 BALB/c nude mice were randomly selected and injected subcutaneously with Hep G2 cell line (5×10^6 cells) in the right armpits.
After 28 d of continuous administration, the mice in each group were weighed and killed by cervical dissection. Tumors and organs (lung, liver, heart and kidney) of the mice in each group were removed under sterile conditions, and washed with physiological saline. After washing, the tumors and the organs were dried with filter paper, weighed to obtain mass and recorded, and the tumor inhibition rate and organ index were calculated. The tumor mass of the mice was the average value of the tumor mass of each group of mice. Tumor inhibition rate=(tumor mass of mice in the model group-tumor mass of mice in the test group)/tumor mass of mice in the model group×100%. Organ index (mg/g)=organ mass (mg)/body mass (g) of mice.

A further data set relates to Hep G2 cell line. In words: Anti-tumor effect on tumor mice (subcutaneous Hep G2 model): tumor mass and tumor inhibition rate. It counts as in vivo, BALB/c nude mice. To be noted: 28 d.
Source text: The effect example explored the anti-tumor effect of the herbal plant compositions of Embodiment 1 and Comparative Examples 1 to 3 on tumor mice, and a specific process is as follows.
as §1, §2
Dosing Criteria: the conventional gavage dose of mice was […]. Generally, it is also necessary to increase the dose of the original medicinal material of the herbal plant composition by 1 time and decrease the dose of the original medicinal material of the herbal plant composition by 1 time for gavage.
Low-dose Embodiment 1 Herbal Plant Composition Group: 10 mice, administered 5.27 g/kg Embodiment 1 herbal plant composition by gavage.
Medium-dose Embodiment 1 Herbal Plant Composition Group: 10 mice, administered 10.53 g/kg Embodiment 1 herbal plant composition by gavage.
High-dose Embodiment 1 Herbal Plant Composition Group: 10 mice, administered 21.06 g/kg Embodiment 1 herbal plant composition by gavage.
High-dose Comparative Example 1 Herbal Plant Composition Group: 10 mice, administered 21.06 g/kg Comparative Example 1 herbal plant composition by gavage.
High-dose Comparative Example 2 Herbal Plant Composition Group: 10 mice, administered 21.06 g/kg Comparative Example 2 herbal plant composition by gavage.
High-dose Comparative Example 3 Herbal Plant Composition Group: 10 mice, administered 21.06 g/kg Comparative Example 3 herbal plant composition by gavage.
Western medicine control group: 10 mice, administered 0.03 g/kg 5-fluorouracil by gavage.
After 28 d of continuous administration, the mice in each group were weighed and killed by cervical dissection. […] After washing, the tumors and the organs were dried with filter paper, weighed to obtain mass and recorded, and the tumor inhibition rate and organ index were calculated. […]

For `O=c1[nH]cc(F)c(=O)[nH]1` [Western medicine control group, 5-fluorouracil], in data set [1] (0.03 g/kg by gavage), the “Cardiac Index” value came to 5.13 mg/g, the “Liver index” value was determined as 42.78 mg/g, the “Lung index” value is reported as 5.96 mg/g and the “Renal index” value is given as 17.69 mg/g. Moreover, the “liver index, renal index, lung index and cardiac index compared to the model group (in words)” value in data set [1] (Table 3, gavage) is reported as “no significant change”. The “Tumor mass” value in the data set on Hep G2 cell line (0.03 g/kg by gavage, Hep G2 tumor nude mice) stood at 0.27 g. In addition, the “tumor inhibition rates in mice (in words)” value in the data set on Hep G2 cell line (Table 2, gavage) was “relatively high”. Moreover, the “Inhibition rate (%)” value with Hep G2 cell line (tumor inhibition vs model group, 0.03 g/kg by gavage) is given as 48.07%.
